Assay results as given in patent US20220144815A1, “1,3,4-OXADIAZOLES AND THEIR DERIVATIVES AS NEW ANTIFUNGAL AGENTS” (Bayer Aktiengesellschaft, priority 2018, published 2022).
Read-outs that look alike come from different tables or passages of the source.

Tests used:
[1] = tested on: Phakopsora pachyrhizi; assay: Example F: in vivo preventive test (soybeans), DMSO/acetone/Tween 80; settings: 288 h, 500 ppm of tested compound, preventive spray, soybean, evaluated 12 days after inoculation, read-out: efficacy
Description: Solvent: 5% by volume of dimethyl sulfoxide • 10% by volume of acetone
Emulsifier: 1 μL of Tween® 80 per mg of active ingredient
The tested compounds were made soluble and homogenized in a mixture of dimethyl sulfoxide/acetone/Tween® 80 and then diluted in water to the desired concentration.
The young plants of wheat were treated by spraying the tested compound prepared as described above. Control plants were treated only with an aqueous solution of acetone/dimethyl sulfoxide/Tween® 80.
After 24 hours, the plants were contaminated by spraying the leaves with an aqueous suspension of Phakospora pachyrhizi spores. The contaminated soybean plants were incubated for 24 hours at 24° C. and at 100% relative humidity and then for 11 days at 24° C. and at 70-80% relative humidity.
The test was evaluated 12 days after the inoculation. 0% means an efficacy which corresponds to that of the control plants while an efficacy of 100% means that no disease was observed.

[2] = tested on: Alternaria brassicae; assay: Example E: in vivo preventive test (cabbage); settings: 144 h, 500 ppm of tested compound, preventive spray, evaluated 6 days after inoculation, read-out: efficacy
Description: Solvent: 5% by volume of dimethyl sulfoxide • 10% by volume of acetone Emulsifier: 1 μL of Tween® 80 per mg of active ingredient The tested compounds were made soluble and homogenized in a mixture of Dimethyl sulfoxide/Acetone/Tween® 80 and then diluted in water to the desired concentration. The young plants of cabbage were treated by spraying the tested compound prepared as described above. Control plants were treated only with an aqueous solution of Acetone/Dimethyl sulfoxide/Tween® 80. After 24 hours, the plants were contaminated by spraying the leaves with an aqueous suspension of Alternaria brassicae spores. The contaminated cabbage plants were incubated for 6 days at 20° C. and at 100% relative humidity. The test was evaluated 6 days after the inoculation. 0% means an efficacy which corresponds to that of the control plants while an efficacy of 100% means that no disease was observed.

[3] = Log P by HPLC on reversed phase columns, method [a] (EEC directive 79/831 Annex V.A8); type: physicochemical; settings: reversed phase HPLC column, read-out: logP
Summary of the method: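 Log P calibrated with C3–C16 straight-chain alkan-2-ones of known Log P, interpolating linearly between retention times. Method per EEC 79/831 Annex V.A8: reversed-phase LC-UV in the acidic range, water/0.1% formic acid and acetonitrile gradient from 10% to 95% acetonitrile.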

[4] = tested on: Colletotrichum lindemuthianum; assay: Example B: in vitro cell test, spore germination and mycelium growth in liquid culture; type: cell-based; settings: 144 h, 20 ppm of tested compound, 6 days incubation, read-out: efficacy (inhibition of fungal growth)
Description: • Solvent: dimethyl sulfoxide Culture medium: 14.6 g anhydrous D-glucose (VWR), • 7.1 g mycological peptone (Oxoid), • 1.4 g granulated yeast extract (Merck), QSP 1 liter Inoculum: spore suspension The tested compounds were solubilized in dimethyl sulfoxide and the solution used to prepare the required range of concentrations. The final concentration of dimethyl sulfoxide used in the assay was ≤1%. A spore suspension of Colletotrichum lindemuthianum was prepared and diluted to the desired spore density. The compounds were evaluated for their ability to inhibit spore germination and mycelium growth in liquid culture assay. The compounds were added in the desired concentration to the culture medium with spores. After 6 days incubation, fungi-toxicity of compounds was determined by spectrometric measurement of mycelium growth. Inhibition of fungal growth was determined by comparing the absorbance values in wells containing the tested compounds with the absorbance in control wells without tested compounds.

[5] = log P determined according to method [a] (HPLC on reversed phase columns)
[6] = method [a], HPLC on reversed phase columns

Compound	pest or weed control at 500 µg/mL [1] [%]	pest or weed control at 500 µg/mL [2] [%]	chromatographic logP [3, 5]	inhibition of growth at 20 µg/mL [4] [%]	chromatographic logP [3, 6]
FC(F)c1nnc(-c2ccc(COc3ccc(Cl)cc3)cc2)o1 [I.024, 2-{4-[(4-chlorophenoxy)methyl]phenyl}-5-(difluoromethyl)-1,3,4-oxadiazole]	90 to 100	–	–	–	–
FC(F)c1nnc(-c2cnc(-c3ccsc3)nc2)o1 [I.072, 5-[5-(difluoromethyl)-1,3,4-oxadiazol-2-yl]-2-(3-thienyl)pyrimidine]	–	70 to 79	–	–	–
FC(F)c1nnc(-c2ccc(-n3ccnn3)cc2)o1 [I.005, 2-(difluoromethyl)-5-[4-(1H-1,2,3-triazol-1-yl)phenyl]-1,3,4-oxadiazole]	–	90 to 100	–	–	–
FC(F)c1nnc(-c2ccc(-c3ccccc3)cc2)o1 [I.007, 2-([biphenyl]-4-yl)-5-(difluoromethyl)-1,3,4-oxadiazole]	–	80 to 89	–	–	–
Fc1ccc(Cc2ncc(-c3nnc(C(F)F)o3)cn2)c(F)c1 [I.115, 2-(2,4-difluorobenzyl)-5-[5-(difluoromethyl)-1,3,4-oxadiazol-2-yl]pyrimidine]	70 to 79	–	2.7	–	–
FC(F)c1nnc(-c2ccc(Nc3ncccn3)cc2)o1 [I.013, N-{4-[5-(difluoromethyl)-1,3,4-oxadiazol-2-yl]phenyl}pyrimidin-2-amine]	–	90 to 100	–	90 to 100	–
Nc1ncc(-c2nnc(C(F)F)o2)cn1 [I.059, 5-[5-(difluoromethyl)-1,3,4-oxadiazol-2-yl]pyrimidin-2-amine]	90 to 100	–	–	–	–
CN(c1ccccc1)c1ncc(-c2nnc(C(F)F)o2)cn1 [I.087, 5-[5-(difluoromethyl)-1,3,4-oxadiazol-2-yl]-N-methyl-N-phenylpyrimidin-2-amine]	–	90 to 100	–	–	–
COCCNc1ncc(-c2nnc(C(F)F)o2)cn1 [I.068, 5-[5-(difluoromethyl)-1,3,4-oxadiazol-2-yl]-N-(2-methoxyethyl)pyrimidin-2-amine]	–	70 to 79	–	90 to 100	–
Fc1cccc(Nc2ncc(-c3nnc(C(F)F)o3)cn2)c1 [I.094, 5-[5-(difluoromethyl)-1,3,4-oxadiazol-2-yl]-N-(3-fluorophenyl)pyrimidin-2-amine]	–	90 to 100	–	–	–
FC(F)c1nnc(-c2ccc(Cn3ccnc3)cc2)o1 [I.010, 2-(difluoromethyl)-5-[4-(1H-imidazol-1-ylmethyl)phenyl]-1,3,4-oxadiazole]	–	90 to 100	–	–	–
FC(F)c1nnc(-c2cnc(CC3CCCCC3)nc2)o1 [I.083, 2-(cyclohexylmethyl)-5-[5-(difluoromethyl)-1,3,4-oxadiazol-2-yl]pyrimidine]	90 to 100	–	–	–	–
Fc1ccccc1Nc1ncc(-c2nnc(C(F)(F)Cl)o2)cn1 [I.131, 5-{5-[chloro(difluoro)methyl]-1,3,4-oxadiazol-2-yl}-N-(2-fluorophenyl)pyrimidin-2-amine]	–	90 to 100	3.26	90 to 100	–
FC(F)c1nnc(-c2cnc(NC3(c4ccc(Cl)cc4)CCCCC3)nc2)o1 [I.182, N-[1-(4-chlorophenyl)cyclohexyl]-5-[5-(difluoromethyl)-1,3,4-oxadiazol-2-yl]pyrimidin-2-amine]	–	–	–	70 to 79	4.4
FC(F)c1nnc(-c2ccc(N3CCCCC3)nc2)o1 [I.040, 5-[5-(difluoromethyl)-1,3,4-oxadiazol-2-yl]-2-(piperidin-1-yl)pyridine]	–	70 to 79	–	–	–
Fc1cccc(C2(Nc3ncc(-c4nnc(C(F)F)o4)cn3)CCCC2)c1 [I.172, 5-[5-(difluoromethyl)-1,3,4-oxadiazol-2-yl]-N-[1-(3-fluorophenyl)cyclopentyl]pyrimidin-2-amine]	–	80 to 89	–	70 to 79	3.6
N#CC(Nc1ncc(-c2nnc(C(F)F)o2)cn1)c1ccc(F)cc1 (racemic) [I.141, (2RS)—({5-[5-(difluoromethyl)-1,3,4-oxadiazol-2-yl]pyrimidin-2-yl}amino)(4-fluorophenyl)acetonitrile]	–	–	2.65	70 to 79	–
ON(Cc1ccccc1)c1ncc(-c2nnc(C(F)F)o2)cn1 [I.110, N-benzyl-5-[5-(difluoromethyl)-1,3,4-oxadiazol-2-yl]-N-hydroxypyrimidin-2-amine]	90 to 100	90 to 100	2.23	90 to 100	–
CC(C)C(Nc1ncc(-c2nnc(C(F)F)o2)cn1)c1ccccc1 (racemic) [I.139, 5-[5-(difluoromethyl)-1,3,4-oxadiazol-2-yl]-N-[(1RS)-2-methyl-1-phenylpropyl]pyrimidin-2-amine]	–	–	3.57	90 to 100	–
FC(F)c1nnc(-c2cnc(NC3(c4ccccc4)CCC3)nc2)s1 [I.159, 5-[5-(difluoromethyl)-1,3,4-thiadiazol-2-yl]-N-(1-phenylcyclobutyl)pyrimidin-2-amine]	–	–	3.54	90 to 100	–
FC(F)c1nnc(-c2cnc(NCc3ccccc3)nc2)o1 [I.088, N-benzyl-5-[5-(difluoromethyl)-1,3,4-oxadiazol-2-yl]pyrimidin-2-amine]	90 to 100	–	–	–	–
FC(F)(Cl)c1nnc(-c2cnc(NC3(c4ccccc4)CCC3)nc2)o1 [I.176, 5-{5-[chloro(difluoro)methyl]-1,3,4-oxadiazol-2-yl}-N-(1-phenylcyclobutyl)pyrimidin-2-amine]	–	–	–	70 to 79	4.08
Fc1ccccc1Nc1ccc(-c2nnc(C(F)F)o2)cc1 [I.017, N-{4-[5-(difluoromethyl)-1,3,4-oxadiazol-2-yl]phenyl}-2-fluoroaniline]	–	80 to 89	–	90 to 100	–
FC(F)c1nnc(-c2cnc(NCC3CCOCC3)nc2)o1 [I.105, 5-[5-(difluoromethyl)-1,3,4-oxadiazol-2-yl]-N-(tetrahydro-2H-pyran-4-ylmethyl)pyrimidin-2-amine]	–	80 to 89	1.73	–	–
Fc1ccccc1C1(Nc2ncc(-c3nnc(C(F)F)o3)cn2)CCCC1 [I.171, 5-[5-(difluoromethyl)-1,3,4-oxadiazol-2-yl]-N-[1-(2-fluorophenyl)cyclopentyl]pyrimidin-2-amine]	70 to 79	80 to 89	–	70 to 79	3.74
FC(F)c1nnc(-c2ccc(-c3nnc(C(F)F)o3)cc2)o1 [I.019, 2,2′-(1,4-phenylene)bis[5-(difluoromethyl)-1,3,4-oxadiazole]]	90 to 100	–	–	–	–
CON(c1ncc(-c2nnc(C(F)F)o2)cn1)C(C)c1ccccc1 (racemic) [I.147, N-{5-[5-(difluoromethyl)-1,3,4-oxadiazol-2-yl]pyrimidin-2-yl}-O-methyl-N-[(1RS)-1-phenylethyl]hydroxylamine]	80 to 89	90 to 100	3.37	–	–
FC(F)c1nnc(-c2ccc(Br)cc2)o1 [I.009, 2-(4-bromophenyl)-5-(difluoromethyl)-1,3,4-oxadiazole]	70 to 79	–	–	–	–
FC(F)c1nnc(-c2cnc(NC3(c4ccccc4Br)CC3)nc2)o1 [I.183, N-[1-(2-bromophenyl)cyclopropyl]-5-[5-(difluoromethyl)-1,3,4-oxadiazol-2-yl]pyrimidin-2-amine]	–	–	–	80 to 89	3.49
CSc1ccc(-c2nnc(C(F)F)o2)cc1 [I.002, 2-(difluoromethyl)-5-[4-(methylsulfanyl)phenyl]-1,3,4-oxadiazole]	–	70 to 79	–	–	–
